In brackets after ≈: the same amount, converted by molar mass.

The values that follow come from EPA's ToxValDB 9.5 (doi:10.2903/j.efsa.2014.3485).

Series [1] concerns Typhlodromus pyri. Put plainly: LR50; higher = less toxic. As to conditions: not reported; mortality.
For series [2], the system named is Colinus virginianus. As to conditions: oral.
In series [3] the test system is Oncorhynchus mykiss.
Series [4] deals with Apis mellifera. As to conditions: acute, duration: 48 hours, mortality.
In series [5] the test system is Neomysis kadiakensis. As to conditions: chronic/long-term; duration: 28 days; reproduction.
Series [6] relates to Tagia sp.
Series [7] deals with Hypoaspis aculeifer. As to conditions: chronic/long-term.
Series [8] deals with Rattus norvegicus. As to conditions: oral; for LD50: acute, mortality.
In series [9] the test system is Mus musculus. As to conditions: developmental; development.
The subject of series [10] is Canidae. As to conditions: chronic; duration: 1 years; oral; Dog Other; histopathology: nonneoplastic.
The test system of series [11] is Daphnia magna. As to conditions: chronic/long-term; duration: 21 days; reproduction.
[12] abbreviates: reproduction developmental, diet, reproduction.

As to `CC(C)(C)C(O)(CCc1ccc(Cl)cc1)Cn1cncn1` (stereo not given) [Tebuconazole], the LR50 in series [1] was determined as 58 g/ha. In addition, the LC50 in [2] (acute, diet, mortality) is above 703 mg/kg-day; in series [3] (acute, duration: 96 hours, mortality), 4.4 µg/mL (≈ 14.3 µM); in series [6] (acute, duration: 14 days, mortality) it was 1380 mg/kg. Besides, the LD50 in series [2] (acute, mortality) is 1990 mg/kg-day; in series [4] (dermal) it was above 200 µg/piece; in series [4] (oral, unspecified), above 83 µg/piece; in series [8], 1700 mg/kg-day. In addition, the LOEL in series [2] (setting [12]) came out at 12.4 mg/kg-day. Further, the NOEL was 5.8 mg/kg-day in [2] (setting [12]) and 10 mg/kg-day in series [8] (reproduction developmental, diet, body weight). Besides, the NOEC in [3] (chronic/long-term, duration: 83 days, growth) worked out at 0.012 mg/L; in [5], 0.035 mg/L; in series [6] (chronic/long-term, duration: 56 days, reproduction) it was 10 mg/kg; in [7], 50 mg/kg; in series [11] it was 0.01 mg/L. The molecule further showed an LOAEL in series [9] of 10 mg/kg-day. In addition, the NOAEL in [10] turned out to be 3 mg/kg-day.
`NC(Cc1ncn[nH]1)C(=O)O` (stereo not given) [1,2,4-Triazole-3-alanine] registered an LC50 in series [2] (acute, diet, mortality) above 1370 mg/kg-day. The same molecule yielded an LD50 in series [8] above 5000 mg/kg-day.

One may read the LOAEL as the lowest tested level that showed an adverse finding. One may read the NOAEL as the highest tested level that showed no adverse finding.
